EP4512427A1, “ANTIBODY-DRUG CONJUGATES BASED ON MOLECULAR GLUE DEGRADERS AND USES THEREOF” (Mablink Bioscience, priority 2023, dated 2025)
pIC50: −log10 of the molar value.

How the values were obtained:
[1] = biological target: T1, BCRP (Homo sapiens, UniProt Q9UNQ0); test: BCRP efflux substrate assay in MDCK-BCRP; format: in vitro ADME; conditions: for efflux ratio at 60 min, 5 µM / Papp A→B at 60 min, 5 µM / Papp B→A at 60 min, 5 µM: dog, pH 7.4, MDCK-BCRP; for efflux ratio at 60 min, 5 µM: read-out: Efflux ratio B/A; for Papp A→B at 60 min, 5 µM: read-out: Papp A (donor) to B (acceptor); for Papp B→A at 60 min, 5 µM: read-out: Papp B (acceptor) to A (donor); for BCRP efflux potential: in words
T1 construct: host or cells: MDCK-BCRP (Preadyport)
T1 sequence (Q9UNQ0 1-655): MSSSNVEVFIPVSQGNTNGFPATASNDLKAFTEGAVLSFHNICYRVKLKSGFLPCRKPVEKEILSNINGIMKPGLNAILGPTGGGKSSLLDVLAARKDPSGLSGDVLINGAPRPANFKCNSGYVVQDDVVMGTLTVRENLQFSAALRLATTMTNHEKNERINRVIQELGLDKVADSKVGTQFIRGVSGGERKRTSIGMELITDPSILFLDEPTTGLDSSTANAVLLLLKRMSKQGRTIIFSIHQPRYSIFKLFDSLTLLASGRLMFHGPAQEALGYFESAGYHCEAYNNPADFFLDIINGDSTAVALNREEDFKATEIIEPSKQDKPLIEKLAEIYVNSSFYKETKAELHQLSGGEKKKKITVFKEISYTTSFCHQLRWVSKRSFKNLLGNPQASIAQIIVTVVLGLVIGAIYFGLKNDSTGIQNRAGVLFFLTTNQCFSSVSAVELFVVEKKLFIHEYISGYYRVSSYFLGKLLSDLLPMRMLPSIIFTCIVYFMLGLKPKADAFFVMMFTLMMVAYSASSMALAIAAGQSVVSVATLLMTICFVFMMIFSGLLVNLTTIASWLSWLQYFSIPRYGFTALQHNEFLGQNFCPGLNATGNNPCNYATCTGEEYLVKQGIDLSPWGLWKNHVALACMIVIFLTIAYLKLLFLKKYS
Procedure: (§1) MDR1 and BCRP efflux substrate assays were conducted in MDCK-MDR1 and MDCK-BCRP in vitro models (Preadyport™, Solvo Biotech) at Symeres (Nederland). Compound of the invention (donor well concentration of 5µM) were incubated in cell monolayer 24-transwell Preadyport system, using Preadyport recommended pH 7.4 assay buffer (donor and receiver wells). After 60 min of incubation (no shaking), samples are collected and suspended into triple volume of 66% cold acetonitrile. Samples are stored at -20°C until thawed, centrifuged and analyzed by LC-MS. Quinidine was used a positive control for the MDR1 assay, and prazosin was used as a positive control for the BCRP assay. Exatecan was used as a control, known not to be an MDR1 substrate. Residual DMSO content from compounds stock solutions was below 1% (v/v). The assay was performed in duplicate. The quantification of test compounds in donor or receptor compartment is conducted using relative LC/MS peak areas (samples of initial incubation solutions are used as a single point calibrator), without any spiked standard samples. The data is used for estimating apparent permeability (Papp) and calculation of efflux ratio.

[2] = biological target: T2, MDR1 (Homo sapiens, UniProt P08183); test: MDR1 efflux substrate assay in MDCK-MDR1; format: in vitro ADME; conditions: for Papp A→B at 60 min, 5 µM / Papp B→A at 60 min, 5 µM / efflux ratio at 60 min, 5 µM: dog; for Papp A→B at 60 min, 5 µM / Papp B→A at 60 min, 5 µM: MDCK-MDR1, 5µM, pH 7.4; for Papp A→B at 60 min, 5 µM: read-out: Papp A (donor) to B (acceptor); for Papp B→A at 60 min, 5 µM: read-out: Papp B (acceptor) to A (donor); for efflux ratio at 60 min, 5 µM: MDCK-MDR1, pH 7.4, read-out: Efflux ratio B/A; for MDR1 efflux potential: in words
T2 construct: host or cells: MDCK-MDR1 (Preadyport)
T2 sequence (P08183 whole entry): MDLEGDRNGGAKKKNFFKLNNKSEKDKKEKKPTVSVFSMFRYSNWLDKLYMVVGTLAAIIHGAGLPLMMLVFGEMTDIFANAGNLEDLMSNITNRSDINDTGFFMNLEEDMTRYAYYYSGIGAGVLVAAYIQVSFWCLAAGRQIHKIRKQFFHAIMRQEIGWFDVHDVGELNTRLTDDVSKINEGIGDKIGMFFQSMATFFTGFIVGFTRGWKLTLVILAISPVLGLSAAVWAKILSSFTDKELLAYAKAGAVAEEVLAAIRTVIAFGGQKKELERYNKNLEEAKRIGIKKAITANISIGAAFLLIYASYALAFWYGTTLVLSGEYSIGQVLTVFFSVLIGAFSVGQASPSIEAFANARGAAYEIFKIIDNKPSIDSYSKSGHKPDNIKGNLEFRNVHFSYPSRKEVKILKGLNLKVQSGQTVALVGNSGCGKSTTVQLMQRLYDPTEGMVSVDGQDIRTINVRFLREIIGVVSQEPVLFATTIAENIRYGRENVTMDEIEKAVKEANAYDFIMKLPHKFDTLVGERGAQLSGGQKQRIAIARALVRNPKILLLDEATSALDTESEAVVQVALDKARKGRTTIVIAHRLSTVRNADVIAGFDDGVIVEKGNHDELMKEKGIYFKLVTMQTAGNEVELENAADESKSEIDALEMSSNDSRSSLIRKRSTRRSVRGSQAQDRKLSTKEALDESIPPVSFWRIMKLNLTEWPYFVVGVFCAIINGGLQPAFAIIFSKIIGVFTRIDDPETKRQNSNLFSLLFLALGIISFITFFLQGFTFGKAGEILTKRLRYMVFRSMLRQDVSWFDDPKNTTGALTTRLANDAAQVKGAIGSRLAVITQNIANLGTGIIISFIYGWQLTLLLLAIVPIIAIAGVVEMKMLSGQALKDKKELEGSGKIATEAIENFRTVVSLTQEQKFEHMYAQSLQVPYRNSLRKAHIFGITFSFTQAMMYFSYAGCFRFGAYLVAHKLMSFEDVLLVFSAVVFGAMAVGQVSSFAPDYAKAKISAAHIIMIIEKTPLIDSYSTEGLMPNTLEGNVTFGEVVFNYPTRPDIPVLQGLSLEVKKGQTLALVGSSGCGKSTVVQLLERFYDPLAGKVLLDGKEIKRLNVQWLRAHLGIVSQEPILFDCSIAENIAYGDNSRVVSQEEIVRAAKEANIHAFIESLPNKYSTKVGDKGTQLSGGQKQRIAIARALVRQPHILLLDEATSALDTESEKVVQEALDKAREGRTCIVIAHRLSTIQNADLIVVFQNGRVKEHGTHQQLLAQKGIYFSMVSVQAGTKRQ
Procedure: as §1

[3] = in vitro; conditions: PAMPA, pH 7.4
Procedure: Stock solutions of compounds of the invention were prepared in dimethyl sulfoxide (DMSO) to a final concentration of 10 mM. Each stock solution was diluted to 50 µM in pH 7.4 Prisma HT buffer (pION) in the presence of 10% MeOH (v/v). 200 µL were added to each well of the donor plate in quintuplicate. […] The acceptor filter plate was carefully placed on top of the donor plate to form a "sandwich." The sandwich was incubated at 25°C for 5 h, at 300 rpm. UV-vis spectra of the solutions in the blank, reference, acceptor, and donor plates were measured using a Tecan Infinite 200 PRO M Nano Plus microplate reader.

[4] = system: MDA-MB-231; test: In vitro cytotoxicity assay (MTT); format: cell-based, human; conditions: Homo sapiens, 6 days incubation
Procedure: (§2) In vitro cytotoxicity of compounds of the disclosure was assessed on several cancerous human cell lines. Cells were plated in 96-well plates at an appropriate density depending on the cell line (between 1000 and 10 000 cells/well in 100µL of appropriate culture media) and incubated at 37°C for 24 hours. Serial dilutions of the tested compound previously dissolved in culture media (50µL) were added, and incubation was carried at 37°C out for 6 days. MTT (5mg/mL in PBS, 20µL, Sigma-Aldrich) was added into the wells, and incubation was continued for 1 to 4 hours at 37°C. Culture media was then carefully removed, and well content was homogeneously dissolved with acidified isopropanol. Absorbance values were measured on a microplate reader using a wavelength of 570 nm (with a reference wavelength of 690 nm). The IC50 concentration values compared to untreated control cells were determined using inhibition dose response curve fitting (GraphPad Prism 9). Exatecan mesylate (cat#HY-13631A) and CR8 (CAS# 294646-77-8; cat#HY-18340) were purchased from MedChemExpress (China).

[5] = system: NCI-N87; test: In vitro cytotoxicity assay (MTT); format: cell-based, human; conditions: Homo sapiens, 6 days incubation
Procedure: as §2

[6] = system: MDA-MB-453; test: In vitro cytotoxicity assay (MTT); format: cell-based, human; conditions: Homo sapiens, 6 days incubation
Procedure: as §2

[7] = system: JIMT-1; test: In vitro cytotoxicity assay (MTT); format: cell-based, human; conditions: Homo sapiens, 144 h, 6 days incubation
Procedure: as §2

[8] = system: BT-474; test: In vitro cytotoxicity assay (MTT); format: cell-based, human; conditions: Homo sapiens, BT-474, 144 h
Procedure: as §2

[9] = system: SKBR-3; test: In vitro cytotoxicity assay (MTT); format: cell-based, human; conditions: Homo sapiens, SK-BR-3, 144 h, 6 days incubation
Procedure: as §2

[10] = system: HT-29; test: In vitro cytotoxicity assay (MTT); format: cell-based; conditions: Homo sapiens, 144 h, 6 days incubation
Procedure: as §2

[11] = system: KB-1; test: In vitro cytotoxicity assay (MTT); format: cell-based; conditions: Homo sapiens, KB16, 144 h, 6 days incubation
Procedure: as §2

[12] = system: MCF-7; test: In vitro cytotoxicity assay (MTT); format: cell-based; conditions: Homo sapiens, MCF7, 144 h, 6 days incubation
Procedure: as §2

[13] = system: BXPC3; test: In vitro cytotoxicity assay (MTT); format: cell-based; conditions: Homo sapiens, BXPC-3, 144 h, 6 days incubation
Procedure: as §2

SMILES	efflux ratio at 60 min, 5 µM [1]	Papp A→B at 60 min, 5 µM [1]	Papp B→A at 60 min, 5 µM [1]	Papp A→B at 60 min, 5 µM [2]	Papp B→A at 60 min, 5 µM [2]	Papp at 5 h, 50 µM [3]	pIC50 [7]	pIC50 [9]	pIC50 [10]	pIC50 [11]	pIC50 [12]	pIC50 [13]	efflux ratio at 60 min, 5 µM [2]	pIC50 ([4]; MDA-MB-231, 144 h)	pIC50 ([5]; NCI-N87, 144 h)	pIC50 ([6]; MDA-MB-453, 144 h)	pIC50 ([8]; BT-474, 6 days incubation, MTT)	BCRP efflux potential [1]	MDR1 efflux potential [2]	also measured
N[C@H]1CC[C@@H](Nc2nc(NCc3ccc(-c4ccccn4)cc3)n3ncc(Br)c3n2)CC1 [Compound 2568]	23.6	2.52 ×10⁻⁶ cm/s	59.5 ×10⁻⁶ cm/s	< 0.54 ×10⁻⁶ cm/s	40.5 ×10⁻⁶ cm/s	88 ×10⁻⁶ cm/s	9.21	8.36	9.34	8.31	7.94	8.31								pIC50 ([4]; 144 h): 9.01; pIC50 ([5]; 144 h): 8.65; pIC50 ([6]; 144 h): 8.78; pIC50 [8]: 8.76
Brc1cnn2c(NCc3ccc(-c4ccccn4)cc3)nc(NC[C@@H]3CCCN3)nc12 [Compound 2571]	12.9	7.09 ×10⁻⁶ cm/s	91.4 ×10⁻⁶ cm/s	0.59 ×10⁻⁶ cm/s	64.2 ×10⁻⁶ cm/s	149 ×10⁻⁶ cm/s	8.82	8.11	8.95		7.10	8.27	108	8.65	8.37	8.45	8.57			
NCCCCNc1nc(NCc2ccc(-c3ccccn3)cc2)n2ncc(Br)c2n1 [Compound 2585]	27.9	1.75 ×10⁻⁶ cm/s	49 ×10⁻⁶ cm/s	< 3.4 ×10⁻⁶ cm/s	34 ×10⁻⁶ cm/s	< 0.3 ×10⁻⁶ cm/s	8.10	7.41						7.61	7.81	7.57	8.75			
CN(CCN)c1nc(NCc2ccc(-c3ccccn3)cc2)n2ncc(Br)c2n1 [Compound 2600]	2.1	22.4 ×10⁻⁶ cm/s	47.1 ×10⁻⁶ cm/s	2.05 ×10⁻⁶ cm/s	59.3 ×10⁻⁶ cm/s	90 ×10⁻⁶ cm/s	9.72	8.77	9.55	8.83	7.91	8.94	28.9	9.54	8.88	8.93	8.93	low level	low level	
CNCCN(C)c1nc(NCc2ccc(-c3ccccn3)cc2)n2ncc(Br)c2n1 [Compound 2605]	1.31	30.9 ×10⁻⁶ cm/s	40.5 ×10⁻⁶ cm/s	4.05 ×10⁻⁶ cm/s	54.5 ×10⁻⁶ cm/s	112 ×10⁻⁶ cm/s	8.91	8.13	9.48		8.43	8.54	13.4	8.81	8.35	8.44	8.56	low level	low level	
N[C@H]1CCN(c2nc(NCc3ccc(-c4ccccn4)cc3)n3ncc(Br)c3n2)C1 [Compound 2655]	3.47	11.1 ×10⁻⁶ cm/s	38.7 ×10⁻⁶ cm/s	5.13 ×10⁻⁶ cm/s	26.9 ×10⁻⁶ cm/s	125 ×10⁻⁶ cm/s		9.85		8.78			5.25	9.27	8.71	9.01	8.80	low level	low level	
N[C@H]1CCC[C@@H]1Nc1nc(NCc2ccc(-c3ccccn3)cc2)n2ncc(Br)c2n1 [Compound 2668]	6.99	10.2 ×10⁻⁶ cm/s	71 ×10⁻⁶ cm/s	1.36 ×10⁻⁶ cm/s	56.4 ×10⁻⁶ cm/s	164 ×10⁻⁶ cm/s		9.70		8.52			41.6	9.09	9.08	8.75	8.67			
N[C@H]1CCCC[C@@H]1Nc1nc(NCc2ccc(-c3ccccn3)cc2)n2ncc(Br)c2n1 [Compound 2671]	4.54	10.1 ×10⁻⁶ cm/s	46 ×10⁻⁶ cm/s	0.99 ×10⁻⁶ cm/s	43.2 ×10⁻⁶ cm/s	176 ×10⁻⁶ cm/s		9.38		8.12			43.7	8.76	8.83	8.65	8.48			
